Experimental data taken from patent publication US12678403B2, “Pharmaceutical composition for preventing or treating obesity or non-alcoholic fatty liver containing Polygalin C as active ingredient” (UNIVERSITY-INDUSTRY COOPERATION GROUP OF KYUNG HEE …, priority 2021, dated 2026).

How the values were obtained:
[1] = test system: ACC; test: Western blotting, ACC phosphorylation in 3T3-L1 adipocytes; format: cell-based, mouse
Protocol: (§1) 3T3-L1 cells were inoculated into a 6-well plate in a density of 8×10^4 cells/well, and the medium was replaced until the confluence is satisfied. For differentiation, cells were incubated in differentiation media (0.5 mM IBMX, 0.5 μM dexamethasone, and 1 μg/mL insulin). The medium was then replaced with a maintenance culture including 1 μg/mL insulin and PC (0-50 μM) once every 2 days.
(§2) Cell lysis buffer (Cell Signaling Technology) was used to lyse cells. The reagent for Bio-Rad protein assay was used to measure protein concentrations for Bradford assay. Each sample was separated by sodium dodecyl sulfate polyacrylamide gel electrophoresis using 8% acrylamide gel and then electrotransferred to a nitrocellulose membrane. The membrane was blocked with 3% bovine serum albumin (BSA) in Tris buffered saline/Tween 20 (TBS-T) at 4° C. for 1 hour and incubated overnight at 4° C. with COX-2, C/EBPα, PPARγ, SREBP1c, FAS, p-ACC, t-ACC, p-AMPK, t-AMPK (1:2000), and β-actin (1:10,000) antibodies. The membrane was extensively washed with TBS-T at 3 or more times for 30 minutes and incubated with goat anti-rabbit IgG-horseradish peroxidase (HRP) and goat anti-mouse IgG-HRP (1:10,000 all in TBS-T) secondary antibodies for 1 hour.
(§3) The MAPK/Akt and AMPK/ACC signaling pathways are involved in the general steps of adipose tissue generation. […]

[2] = test system: FAS; test: Western blotting, FAS in NEFA-induced fatty liver HepG2 cells; format: cell-based, human; conditions: dose-dependently, vs NEFA-induced fatty liver cells
Protocol: (§4) HepG2 cells were inoculated into a 6-well plate in a density of 3×10^5 cells/well and incubated for one day. Then, for fatty liver induction, an FBS-free RPMI medium supplemented with 1% bovine serum albumin (BSA) and NEFA (0.66 mM oleic acid and 0.33 mM palmitic acid) was treated, followed by incubation for 24 hours. When treated with PC (0-50 μM), fatty liver induction medium was treated together for incubation for 24 hours.
as §2
(§5) Due to treatment of free fatty acids such as NEFA, fatty liver is induced by fat accumulation. […]

[3] = test system: FAS; test: Western blotting, FAS protein in 3T3-L1 adipocytes; format: cell-based, mouse; conditions: dose-dependently, vs fully differentiated adipocytes
Protocol: as §1
as §2, with “hour. […]” for “hour.”

[4] = test system: FAS; test: Real-time PCR, FAS RNA in 3T3-L1 adipocytes; format: cell-based, mouse; conditions: vs fully differentiated adipocytes
Protocol: as §1
(§6) Cells were treated with Ribo-Ex to extract RNA using GeneAll Hybrid-R RNA purification kit (GeneAll, Seoul, Korea). RNA was quantified using NanoDrop (Thermo Fisher Scientific). Amplification of complementary DNA was performed at 45° C. for 60 minutes and 95° C. for 15 minutes using a Maxime RT premix (iNtRON Biotechnology, South Korea). Real-time quantitative PCR was performed using the Universal SYBR Green Master Mix (Applied Biosystems, Foster City, CA, USA). Real-time PCR was performed on Applied Biosystems StepOne System (Applied Biosystems). In this study, relative target gene expression was quantified relatively to gene expression of glyceraldehyde 3-phosphate dehydrogenase to determine mRNA expression levels.
(§7) In order to determine whether the PC inhibits the adipogenic factors, the degree of expression of the adipogenic factors was examined through Western blotting and real-time PCR. FAS and SREBP1 play an important role in adipogenesis, protein expression levels of which were investigated. […]

[5] = test system: PPARγ; test: Real-time PCR, PPARγ mRNA in 3T3-L1 adipocytes; format: cell-based, mouse; conditions: vs fully differentiated adipocytes
Protocol: as §1, §6
(§8) To investigate how PC inhibits adipose tissue generation in 3T3-L1 cells, investigation was performed on protein expression levels of key adipose tissue generation markers. C/EBPα and PPARγ are well-known major transcription factors in adipose tissue generation. […]

[6] = test system: AMPK; test: Western blotting, AMPK phosphorylation in 3T3-L1 adipocytes; format: cell-based, mouse
Protocol: as §1, §2, §3

[7] = test system: C/EBPα; test: Western blotting, C/EBPα protein in MDI-induced 3T3-L1 adipocytes; format: cell-based, mouse; conditions: vs MDI-induced group
Protocol: as §1, §2
(§9) To investigate how PC inhibits adipose tissue generation in 3T3-L1 cells, investigation was performed on protein expression levels of key adipose tissue generation markers. […]

[8] = test system: Akt; test: Western blotting, activated Akt in MDI-induced adipocytes; format: cell-based, mouse
Protocol: as §1, §2
(§10) Next, MAPK and Akt signaling in adipocytes in the presence of PC were investigated by Western Blotting.

[9] = test system: C/EBPα; test: Real-time PCR, C/EBPα mRNA in 3T3-L1 adipocytes; format: cell-based, mouse; conditions: vs fully differentiated adipocytes
Protocol: as §1, §6, §8

[10] = test system: HepG2 cells; test: Oil Red O staining, fat accumulation in fatty liver-induced HepG2 cells; format: cell-based, human; conditions: PC 0, 25, 50 μM, vs cells solely treated with NEFA
Protocol: as §4
(§11) The treated cells were washed with PBS and fixed with 10% formalin for 1 hour. The cells were then washed with 60% isopropanol and dried completely. A 60% Oil Red O working solution diluted in distilled water (DW) was added to the cells. In the case of hepatocytes, in order to observe the morphology of the cells, they were additionally treated with hematoxylin for 1 minute for staining. The stained cells were washed with DW 3 times and photographed using the Olympus IX71 microscope (Olympus, Tokyo, Japan). To quantify lipid accumulation, stained cells were dissolved in 100% isopropanol, and measurement was performed at 490 nm with a microplate reader (Bio-Rad).
To investigate whether PC has an inhibitory effect on fat accumulation, cells were treated in the presence and absence of PC at various concentrations (0, 25, and 50 μM), using Oil red O staining. […] Thus, PC reduced accumulation of lipid in fatty liver-induced HepG2 cells.

[11] = test system: C/EBPβ; test: Real-time PCR, C/EBPβ mRNA in 3T3-L1 adipocytes; format: cell-based, mouse; conditions: vs adipocytes
Protocol: as §1, §6
(§12) In order to additionally identify expression of other adipose tissue generation markers such as C/EBPβ and C/EBPδ, mRNA levels of these markers were examined.

[12] = test system: ACC1; test: Western blotting, ACC1 in NEFA-induced fatty liver HepG2 cells; format: cell-based, human; conditions: dose-dependently, vs NEFA-induced fatty liver cells
Protocol: as §4, §2, §5

[13] = test system: 3T3-L1 cells; test: MTT assay, cytotoxicity of PC in 3T3-L1 cells; format: cell-based, mouse; conditions: 0-100 μM PC, 48 hours
Protocol: 3T3-L1 preadipocytes were inoculated into a 96-well cell culture plate by 1×10^4 cells/well and incubated overnight. The medium was then replaced with DMEM including different concentrations of PC (0, 5, 10, 25, 50, 75, and 100 μM) for 48 hours.
(§13) After PC treatment, cells were incubated with MTT solution (0.5 mg/ml dissolved in PBS) for 2 hours. After incubation, the medium in each well was removed, and dimethyl sulfoxide was added to dissolve the precipitated formazan. When formazan was completely dissolved, the absorbance was measured at 540 nm using a microplate reader (Bio-Rad) to determine cell viability.
In order to identify cytotoxicity of PC in 3T3-L1 cells, various concentrations of PC (0, 5, 10, 25, 50, 75, and 100 μM) were treated for 48 hours, and then cell viability was determined using MTT assay.

[14] = test system: HepG2 cells; test: MTT assay, cytotoxicity of PC and NEFA in HepG2 cells; format: cell-based, human; conditions: 0-100 μM PC, 24 hours
Protocol: (§14) HepG2 hepatocytes were inoculated into a 96-well cell culture plate by 1×10^4 cells/well and incubated overnight. Then, for 24 hours, they were replaced with fatty liver induction media including different concentrations of PC (0, 5, 10, 25, 50, and 100 μM).
as §13
In order to identify cytotoxicity of PC and NEFA in HepG2 cells, various concentrations of PC (0, 5, 10, 25, 50, and 100 μM) or NEFA (0, 0.5, 1, and 2 mM) were treated for 24 hours, and then MTT assay was used to determine cell viability.

[15] = test system: COX-2; test: Western blotting, COX-2 in NEFA-induced fatty liver HepG2 cells; format: cell-based, human; conditions: NEFA-treated HepG2 cells
Protocol: as §4, §2
It is known that if the symptoms persist in the fatty liver stage, it causes an inflammatory reaction to develop steatohepatitis. […]

[16] = test system: SREBP1c; test: Real-time PCR, SREBP1c RNA in 3T3-L1 adipocytes; format: cell-based, mouse; conditions: vs fully differentiated adipocytes
Protocol: as §1, §6, §7

[17] = test system: SREBP1c; test: Western blotting, SREBP1c protein in 3T3-L1 adipocytes; format: cell-based, mouse; conditions: dose-dependently, vs fully differentiated adipocytes
Protocol: as §1
as §2, with “hour. […]” for “hour.”

[18] = test system: SREBP1c; test: Immunofluorescence analysis, SREBP1c in MDI-induced adipocytes; format: cell-based, mouse
Protocol: The cells were treated with or without PC in a 4-well confocal dish. After treatment, the cells were fixed with 10% formalin for 10 minutes, treated with 0.2% Triton X diluted in PBS for 20 minutes, washed with PBS 3 times, and blocked with 5% BSA dissolved in PBS for 1 hour. Next, cells were incubated overnight in the presence of anti-SREBP1 antibodies (1:500 in PBS) at 4° C., followed by incubation in the presence of Alexa Fluor-555 antibody for 1 hour at room temperature. The cell nucleus was stained with 4,6-diamidino-2-phenylindole (DAPI: Sigma-Aldrich) at room temperature for 3 minutes. DAPI-stained cells were washed with PBS for 30 minutes, and fluorescence was observed using CELENA™ S Digital Imaging System (Logos Biosystems, Inc.).
In order to determine whether the PC inhibits the adipogenic factors, the degree of expression of the adipogenic factors was examined through Western blotting and real-time PCR. FAS and SREBP1 play an important role in adipogenesis, protein expression levels of which were investigated. […] In addition, according to FIGS. 3B and 3C, the RNA level was reduced compared to fully differentiated adipocytes.

[19] = test system: 3T3-L1 cells; test: Oil Red O staining, adipocyte differentiation / lipid accumulation in 3T3-L1 preadipocytes; format: cell-based, mouse; conditions: 3T3-L1 cells differentiated with PC 0, 25, 50 μM; vs fully differentiated adipocytes
Protocol: as §1, §11
To investigate whether PC has an inhibitory effect on adipose tissue differentiation, cells were differentiated in the presence and absence of PC at various concentrations (0, 25, and 50 μM), and then Oil red O staining was used. […] Thus, PC reduced accumulation of lipids in 3T3-L1 cells during adipose tissue generation differentiation.

[20] = test system: C/EBPδ; test: Real-time PCR, C/EBPδ mRNA in 3T3-L1 adipocytes; format: cell-based, mouse; conditions: vs adipocytes
Protocol: as §1, §6, §12

[21] = test system: MAPK kinase; test: Western blotting, activated MAPK kinase in MDI-induced adipocytes; format: cell-based, mouse; conditions: MDI-induced adipocytes (ERK, JNK, p38)
Protocol: as §1, §2, §10

[22] = test system: PPARγ; test: Western blotting, PPARγ protein in MDI-induced 3T3-L1 adipocytes; format: cell-based, mouse; conditions: vs MDI-induced group
Protocol: as §1, §2, §9

[23] = test system: HepG2 cells; test: MTT assay, cell viability in NEFA-treated fatty liver-induced HepG2 cell model; format: cell-based, human; conditions: 1 mM NEFA with 50 µM PC, 24 hours
Protocol: as §4, §14, §13
To determine the preventive and therapeutic effects of PC in fatty liver-induced cell models, treatment of 1 mM NEFA as well as various concentrations of PC (0, 5, 10, 25, 50 μM) were performed for 24 hours, and then MTT assay was used to determine cell viability.

[24] = PC treatment, 3T3-L1 adipocytes
[25] = vs fully differentiated adipocytes

Polygalin C [PC]
total ACC expression level [1, 24]: unchanged
phosphorylation of ACC [1, 25]: significantly increased
expression level of FAS [2]: significantly reduced
protein expression level of FAS [3]: significantly reduced
RNA level of FAS [4]: reduced
mRNA expression level of PPARγ [5]: reduced
total AMPK expression level [6, 24]: unchanged
phosphorylation of AMPK [6, 25]: significantly increased
relative protein level of C/EBPα [7]: decreased dose-dependently
expression level of activated Akt [8]: significantly reduced dose-dependently
mRNA expression level of C/EBPα [9]: reduced
production of lipid droplets (Oil red O) [10]: dose-dependently inhibited
mRNA level of C/EBPβ [11]: decreased concentration-dependently
expression level of ACC1 [12]: significantly reduced
concentration with non-toxic effect (cell viability, MTT) [13]: up to 50 μM
concentration with non-toxic effect (cell viability, MTT) [14]: up to 100 μM
expression of COX-2 induced by NEFA treatment [15]: reduced concentration-dependently
RNA level of SREBP1c [16]: reduced
protein expression level of SREBP1c [17]: significantly reduced
MDI-induced SREBP1c expression (immunofluorescence) [18]: significant relieving effect
production of lipid droplets (Oil red O) [19]: dose-dependently inhibited
mRNA level of C/EBPδ [20]: decreased concentration-dependently
expression level of activated MAPK kinase [21]: significantly reduced dose-dependently
relative protein level of PPARγ [22]: decreased dose-dependently
cell viability (MTT) in NEFA-treated cells [23]: cell viability was restored
